Data published in patent publication US20220249599A1, “TREATMENT OF IMPLANTS WITH ENGINEERED ANTIMICROBIAL AMPHIPHILIC PEPTIDES” (priority 2018, published 2022).
Where two headings read alike, the source gives them in different places. Ends that are not written are not given here.

Legend:
[1] = tested on: Escherichia coli ATCC BAA-2471 (NDM-1); format: cell-based; details: ATCC BAA-2471
Procedure: (§1) Each peptide was formulated in PBS buffer prior to testing. Peptides of SEQ ID NO:5 and SEQ ID NO:8 were brought up in 100% DMSO with 0.002% polysorbate-80 at 1.28 mg/mL (40× the highest final test concentration of 32 mcg/mL). Final test concentration of DMSO was 2.5% in the assay at the first dilution for those two compounds.
(§2) Mueller Hinton II broth (MHB II; BD; Lot Nos. 6258541 and 7143896) was used for MIC testing of aerobic organisms. 0.002% polysorbate 80 (P80) was added to the test medium.
(§3) MIC values were determined using a broth microdilution procedure described by CLSI (1, 3). Automated liquid handlers (Multidrop 384, Labsystems, Helsinki, Finland; Biomek 2000 and Biomek FX, Beckman Coulter, Fullerton Calif.) were used to conduct serial dilutions and liquid transfers.
(§4) To prepare the drug mother plates, which would provide the serial peptide dilutions for the replicate daughter plates, the wells of columns 2-12 of standard 96-well microdilution plates (Costar 3795) were filled with 150 µl of the designated diluent for each row of peptide.
(§5) The test articles and comparator compounds ([…] at 40× the highest concentration to be tested) were dispensed into the appropriate wells in column 1. The Biomek 2000 was then used to make 2-fold serial dilutions in the mother plates from column 1 through column 11. The wells of Column 12 contained no drug and served as the organism growth control wells for the assay.
(§6) The daughter plates were loaded with 185 μL per well of MHB II using the Multidrop 384. The daughter plates were completed on the Biomek FX instrument which transferred 5 uL of peptide solution from each well of a mother plate to the corresponding well of each daughter plate in a single step. A standardized inoculum of each test organism was prepared per CLSI methods. The inoculum for each organism was dispensed into sterile reservoirs divided by length (Beckman Coulter), and the Biomek 2000 was used to inoculate the plates. Daughter plates were placed on the Biomek 2000 work surface in reverse orientation so that inoculation took place from low to high drug concentration.
(§7) Plates were stacked 3-4 high, covered with a lid on the top plate, placed in plastic bags, and incubated at 35° C. for 16 to 20 hrs. Following incubation, the microplates were removed from the incubator and viewed from the bottom using a plate viewer. […] The MIC was read and recorded as the lowest concentration of peptide that inhibited visible growth of the organism.

[2] = tested on: Pseudomonas aeruginosa ATCC BAA-2109 (MDR); format: cell-based; details: ATCC BAA-2109
Procedure: as §1, §2, §3, §4, §5, §6, §7

[3] = tested on: Staphylococcus aureus ATCC 29213 (MSSA; QC); format: cell-based; details: ATCC 29213
Procedure: as §1, §2, §3, §4, §5, §6, §7

[4] = tested on: Enterococcus faecium ATCC 51559 (VRE); format: cell-based; details: ATCC 51559
Procedure: as §1, §2, §3, §4, §5, §6, §7

[5] = tested on: Staphylococcus aureus NRS382 (USA100; HA-MRSA); format: cell-based; details: USA100
Procedure: as §1, §2, §3, §4, §5, §6, §7

[6] = tested on: Acinetobacter baumannii ATCC 19606 (non-MDR); format: cell-based; details: Acinetobacter baumannii ATCC 19606 (non-MDR)
Procedure: as §1, §2, §3, §4, §5, §6, §7

[7] = tested on: Staphylococcus aureus ATCC 43300 (MRSA); format: cell-based; details: ATCC 43300
Procedure: as §1, §2, §3, §4, §5, §6, §7

[8] = tested on: Streptococcus pneumoniae ATCC 49619 (QC); format: cell-based; details: ATCC 49619
Procedure: as §1, §2, §3, §4, §5, §6, §7

[9] = tested on: Enterococcus faecalis ATCC 700802 (V583 VRE); format: cell-based; details: ATCC 700802
Procedure: as §1, §2, §3, §4, §5, §6, §7

[10] = rat; for AUCinf / AUClast / Cmax / Extrapolated / MRTlast / T1/2: Mean; for Tmax: individual animals
Procedure: Male Sprague-Dawley Rats will be received from an approved vendor with a single jugular vein cannula (JVC) and allowed to acclimate to the Test Facility for at least 2 days prior to study start. Animals will be weighed prior to dosing. No fasting will be required.
Intravenous administration will be via 30 minute infusion into a JVC. Following dosing, the catheter will be flushed with ˜0.5 mL saline and tied off to prevent re-access.
Serial blood samples will be collected via jugular vein cannula (JVC) or by another approved method if patency is lost. The final blood samples will be obtained via direct cardiac puncture following inhalation anesthesia.
Blood samples will be collected into K2EDTA tubes and stored on wet ice. Whole blood will be processed to plasma by centrifugation (3500 rpm at 5° C.) within 30 minutes of collection. Plasma samples will be transferred into 96 well plates (matrix tubes) and stored at −80° C. until analysis. Administered doses will be determined gravimetrically.
Prior to extraction, a known concentration of a mass-adjusted internal standard (IS) will be added to assess recovery and allow for quantitation. Purified samples will be further subjected to high-performance liquid chromatography (HPLC) using C18 300 or 130 angstrom columns prior to MS/MS analysis. Multiple charge states will be observed by MS, so MS/MS will be employed to enable multiple reaction monitoring (MRM) analyses to determine the most MRM transitions with the highest signal-to-noise gain. Compound plasma concentrations will be determined by comparing to and compensating with co-purified IS peak intensity and validated calibrated standard curves.
Pharmacokinetic parameters will be calculated using non-compartmental methods as implemented in the Phoenix® WinNonlin® ver. 6.3 comprehensive TK/PK analysis software program (Pharsight Corporation; Mountain View, Calif.) using an IV infusion model. Pharmacokinetic analysis will be conducted using a 30-minute intravenous infusion time. Therefore, 30 minutes will be added to each sample time point postdose to obtain nominal time for TK analysis. Nominal times and dosage levels will be used for all calculations. Values below the lower limit of quantitation (BLQ) will be assigned a value of zero for the pharmacokinetic calculations. Microsoft® Excel® 2013 will be used for receipt of bioanalytical data, minor formatting, including setting BLQ values to “0”, transfer into WinNonlin® for PK analysis, and calculation of the mean when an approximated value will be excluded. All plasma concentration data from all animals will be included in the analysis. Graphical presentations will be performed using Microsoft® Excel® 2013.

RRWVRRVRRVWRRVVRVVRRWVRR-NH2 (C-terminus assumed) [SEQ ID NO: 1]
MIC [1]: 2 µg/mL
MIC [2]: 4 µg/mL
MIC [3]: 8 µg/mL
MIC [4]: 2 µg/mL
MIC [5]: 4 µg/mL
MIC [6]: 2 µg/mL
MIC [7]: 4 µg/mL
MIC [8]: 16 µg/mL
MIC [9]: 4 µg/mL
AUCinf ([10]; Group 4 IV infusion 10 mg/kg): 80486 ng·h/mL
AUClast ([10]; Group 4 IV infusion 10 mg/kg): 80339 ng·h/mL
Cmax ([10]; Group 4 IV infusion 10 mg/kg): 67192 ng/mL
Extrapolated ([10]; Group 4 IV infusion 10 mg/kg): 0.186%
MRTlast ([10]; Group 4 IV infusion 10 mg/kg): 1.18 h
T1/2 ([10]; Group 4 IV infusion 10 mg/kg): 4.07 h
Tmax ([10]; Group 4 IV infusion 10 mg/kg): 0.5333 h
AUCinf ([10]; IV infusion 1 mg/kg): 787 ng·h/mL
AUClast ([10]; IV infusion 1 mg/kg): 757 ng·h/mL
Cmax ([10]; IV infusion 1 mg/kg): 1271 ng/mL
Extrapolated ([10]; IV infusion 1 mg/kg): 3.28%
MRTlast ([10]; IV infusion 1 mg/kg): 1.67 h
T1/2 ([10]; IV infusion 1 mg/kg): 6.16 h
Tmax ([10]; IV infusion 1 mg/kg): 0.5333 h
AUCinf ([10]; IV infusion 5 mg/kg): 25791 ng·h/mL
AUClast ([10]; IV infusion 5 mg/kg): 25683 ng·h/mL
Cmax ([10]; IV infusion 5 mg/kg): 30409 ng/mL
Extrapolated ([10]; IV infusion 5 mg/kg): 0.424%
MRTlast ([10]; IV infusion 5 mg/kg): 1.03 h
T1/2 ([10]; IV infusion 5 mg/kg): 5.43 h
Tmax ([10]; IV infusion 5 mg/kg): 0.5333 h
